Measured values as given in the NIST ThermoML archive (doi:10.1016/j.jct.2014.04.016).
“And” between values parts separate entries of the source, which are not always exact repeats. Identical values can stand only once. Numbers after ± are expanded uncertainties.

Assay: xn = mol fraction of the nth substance listed
Details: 100 kPa, Liquid; for viscosity: Concentric cylinders viscometry; for mass density: Vibrating tube method; for electrical conductivity: Alternating current cell with electrodes

SMILES: CCCCCCCCOS(=O)(=O)[O-].CCn1cc[n+](C)c1 [1-ethyl-3-methylimidazolium octyl sulfate] + O
- viscosity (293.1 K, x1 = 0.3555): 136.9 ± 9.7 mPa·s
- viscosity (293.1 K, x1 = 0.4108): 154.7 ± 11 mPa·s
- mass density (293.1 K, x1 = 0.1197): 1069.2 ± 1 kg/m3
- mass density (293.1 K, x1 = 0.1402): 1072.6 ± 1 kg/m3
- mass density (293.1 K, x1 = 0.1605): 1076.1 ± 1 kg/m3 and 1076.2 ± 1 kg/m3
- mass density (293.1 K, x1 = 0.2632): 1085.4 ± 1 kg/m3
- mass density (293.1 K, x1 = 0.3076): 1087.6 ± 1 kg/m3
- mass density (293.1 K, x1 = 0.3555): 1089.2 ± 1 kg/m3
- mass density (293.1 K, x1 = 0.4108): 1091.1 ± 1 kg/m3
- electrical conductivity (294.1 K, x1 = 0.1766): 1 S/m
- electrical conductivity (294.1 K, x1 = 0.2119): 0.826 S/m and 0.828 S/m
- electrical conductivity (294.1 K, x1 = 0.2632): 0.585 ± 0.012 S/m
- viscosity (294.1 K, x1 = 0.1402): 66.11 ± 4.3 mPa·s
- mass density (294.1 K, x1 = 0.1402): 1072 ± 1 kg/m3
- electrical conductivity (295.1 K, x1 = 0.0803): 1.81 ± 0.038 S/m
- electrical conductivity (295.1 K, x1 = 0.1766): 1.03 S/m
- electrical conductivity (295.1 K, x1 = 0.2119): 0.85 S/m and 0.852 S/m
- electrical conductivity (295.1 K, x1 = 0.2632): 0.606 ± 0.014 S/m
- electrical conductivity (295.1 K, x1 = 0.3555): 0.387 S/m and 0.389 S/m
- electrical conductivity (295.1 K, x1 = 0.4108): 0.32 ± 0.007 S/m
- viscosity (295.1 K, x1 = 0.1402): 62.58 ± 4 mPa·s
- mass density (295.1 K, x1 = 0.1402): 1071.3 ± 1 kg/m3
- electrical conductivity (296.1 K, x1 = 0.1605): 1.18 S/m
- electrical conductivity (296.1 K, x1 = 0.1766): 1.05 S/m and 1.06 S/m
- electrical conductivity (296.1 K, x1 = 0.2119): 0.873 S/m and 0.875 S/m
- electrical conductivity (296.1 K, x1 = 0.2632): 0.628 ± 0.013 S/m
- electrical conductivity (296.1 K, x1 = 0.3076): 0.531 S/m and 0.533 S/m
- electrical conductivity (296.1 K, x1 = 0.4688): 0.258 ± 0.006 S/m
- viscosity (296.1 K, x1 = 0.1402): 59.29 ± 3.8 mPa·s
- mass density (296.1 K, x1 = 0.1402): 1070.6 ± 1 kg/m3
- electrical conductivity (297.1 K, x1 = 0.1766): 1.08 S/m
- electrical conductivity (297.1 K, x1 = 0.2119): 0.9 ± 0.019 S/m
- electrical conductivity (297.1 K, x1 = 0.2632): 0.651 ± 0.015 S/m
- viscosity (297.1 K, x1 = 0.1402): 56.2 ± 3.6 mPa·s
- mass density (297.1 K, x1 = 0.1402): 1069.9 ± 1 kg/m3
- electrical conductivity (298.1 K, x1 = 0.0401): 2.16 S/m
- electrical conductivity (298.1 K, x1 = 0.0586): 2.14 S/m
- electrical conductivity (298.1 K, x1 = 0.0803): 1.96 ± 0.04 S/m
- electrical conductivity (298.1 K, x1 = 0.1197): 1.56 S/m
- electrical conductivity (298.1 K, x1 = 0.1402): 1.38 S/m
- electrical conductivity (298.1 K, x1 = 0.1605): 1.25 S/m
- electrical conductivity (298.1 K, x1 = 0.1766): 1.11 S/m
- electrical conductivity (298.1 K, x1 = 0.2119): 0.925 S/m and 0.921 S/m
- electrical conductivity (298.1 K, x1 = 0.2632): 0.675 S/m and 0.669 S/m
- electrical conductivity (298.1 K, x1 = 0.3076): 0.573 S/m and 0.572 S/m
- electrical conductivity (298.1 K, x1 = 0.3555): 0.434 S/m and 0.435 S/m
- electrical conductivity (298.1 K, x1 = 0.4108): 0.358 S/m and 0.355 S/m
- electrical conductivity (298.1 K, x1 = 0.4688): 0.287 S/m and 0.254 S/m
- electrical conductivity (298.1 K, x1 = 0.5001): 0.241 S/m and 0.236 S/m
- viscosity (298.1 K, x1 = 0.1197): 46.3 ± 2.9 mPa·s and 46.17 ± 2.9 mPa·s
- viscosity (298.1 K, x1 = 0.1402): 53.29 ± 3.4 mPa·s
- viscosity (298.1 K, x1 = 0.1605): 59.39 ± 3.8 mPa·s and 57.63 ± 3.7 mPa·s
- viscosity (298.1 K, x1 = 0.2632): 80.58 ± 5.3 mPa·s and 82.1 ± 5.4 mPa·s
- viscosity (298.1 K, x1 = 0.3076): 89.42 ± 5.9 mPa·s
- viscosity (298.1 K, x1 = 0.3555): 104.1 ± 7 mPa·s and 104 ± 7 mPa·s
- viscosity (298.1 K, x1 = 0.4108): 118 ± 8.1 mPa·s
- mass density (298.1 K, x1 = 0.1197): 1065.5 ± 1 kg/m3 and 1065.9 ± 1 kg/m3
- mass density (298.1 K, x1 = 0.1402): 1069.3 ± 1 kg/m3
- mass density (298.1 K, x1 = 0.1605): 1072.8 ± 1 kg/m3 and 1072.7 ± 1 kg/m3
- mass density (298.1 K, x1 = 0.2632): 1081.9 ± 1 kg/m3 and 1081.7 ± 1 kg/m3
- mass density (298.1 K, x1 = 0.3076): 1084.1 ± 1 kg/m3
- mass density (298.1 K, x1 = 0.3555): 1085.8 ± 1 kg/m3
- mass density (298.1 K, x1 = 0.4108): 1087.7 ± 1 kg/m3
- electrical conductivity (303.1 K, x1 = 0.5001): 0.295 ± 0.006 S/m
- viscosity (303.1 K, x1 = 0.1605): 45.8 ± 2.9 mPa·s
- viscosity (303.1 K, x1 = 0.2632): 62.15 ± 4 mPa·s
- viscosity (303.1 K, x1 = 0.3076): 69.23 ± 4.5 mPa·s
- viscosity (303.1 K, x1 = 0.3555): 80.49 ± 5.3 mPa·s
- viscosity (303.1 K, x1 = 0.4108): 91.61 ± 6.1 mPa·s
- mass density (303.1 K, x1 = 0.1605): 1069.3 ± 1 kg/m3
- mass density (303.1 K, x1 = 0.2632): 1078.5 ± 1 kg/m3
- mass density (303.1 K, x1 = 0.3076): 1080.7 ± 1 kg/m3
- mass density (303.1 K, x1 = 0.3555): 1082.4 ± 1 kg/m3
- mass density (303.1 K, x1 = 0.4108): 1084.3 ± 1 kg/m3
- viscosity (308.1 K, x1 = 0.1605): 35.89 ± 2.2 mPa·s
- viscosity (308.1 K, x1 = 0.2632): 48.72 ± 3.1 mPa·s
- viscosity (308.1 K, x1 = 0.3076): 54.47 ± 3.4 mPa·s
- viscosity (308.1 K, x1 = 0.3555): 63.27 ± 4 mPa·s
- viscosity (308.1 K, x1 = 0.4108): 72.28 ± 4.7 mPa·s
- mass density (308.1 K, x1 = 0.1605): 1065.9 ± 1 kg/m3
- mass density (308.1 K, x1 = 0.2632): 1075 ± 1 kg/m3
- mass density (308.1 K, x1 = 0.3076): 1077.2 ± 1 kg/m3
- mass density (308.1 K, x1 = 0.3555): 1079 ± 1 kg/m3
- mass density (308.1 K, x1 = 0.4108): 1080.9 ± 1 kg/m3
- electrical conductivity (313.1 K, x1 = 0.5001): 0.42 ± 0.008 S/m
- viscosity (313.1 K, x1 = 0.1197): 23.09 ± 1.4 mPa·s
- viscosity (313.1 K, x1 = 0.1605): 28.53 ± 1.8 mPa·s
- viscosity (313.1 K, x1 = 0.2632): 40.23 ± 2.5 mPa·s
- viscosity (313.1 K, x1 = 0.3076): 43.26 ± 2.7 mPa·s
- viscosity (313.1 K, x1 = 0.3555): 50.46 ± 3.2 mPa·s
- viscosity (313.1 K, x1 = 0.4108): 57.88 ± 3.7 mPa·s
- mass density (313.1 K, x1 = 0.1197): 1055.4 ± 1 kg/m3
- mass density (313.1 K, x1 = 0.1605): 1062.4 ± 1 kg/m3
- mass density (313.1 K, x1 = 0.2632): 1072.9 ± 1 kg/m3
- mass density (313.1 K, x1 = 0.3076): 1072.2 ± 1 kg/m3
- mass density (313.1 K, x1 = 0.3555): 1075.6 ± 1 kg/m3
- mass density (313.1 K, x1 = 0.4108): 1077.6 ± 1 kg/m3
- viscosity (318.1 K, x1 = 0.3076): 36.02 ± 2.2 mPa·s
- viscosity (318.1 K, x1 = 0.3555): 40.79 ± 2.5 mPa·s
- viscosity (318.1 K, x1 = 0.4108): 46.97 ± 2.9 mPa·s
- mass density (318.1 K, x1 = 0.3076): 1070.1 ± 1 kg/m3
- mass density (318.1 K, x1 = 0.3555): 1072.2 ± 1 kg/m3
- mass density (318.1 K, x1 = 0.4108): 1074.2 ± 1 kg/m3
- electrical conductivity (323.1 K, x1 = 0.5001): 0.58 ± 0.012 S/m
- viscosity (323.1 K, x1 = 0.3555): 33.03 ± 2 mPa·s
- viscosity (323.1 K, x1 = 0.4108): 38.58 ± 2.4 mPa·s
- mass density (323.1 K, x1 = 0.3555): 1068.8 ± 1 kg/m3
- mass density (323.1 K, x1 = 0.4108): 1070.8 ± 1 kg/m3
